Patent US11246320B2, “Casein glycomacropeptide (CGMP) oligomers” (Chr. Hansen A/S, priority 2017, dated 2022)
Blank lines part the entries; values can stand above or below the compound they belong to.

How the values were obtained:
[1] = cited from earlier work; for pKsp: comparison values
[2] = Stability of curcumin, free versus encapsulated (absorbance at 420 nm); format: physicochemical
Method: To prepare a stock solution of curcumin, 100 mg of commercial turmeric powder was suspended in 10 mL of ethanol and vortex and kept for inversion for 2 hours. The tube was closed and covered with aluminum foil to prevent the degradation of curcumin by oxidation and UV light. Next, the suspension was centrifuged at 13200 rpm for 30 minutes to separate the insoluble particles form the ethanol solubilized curcumin. The supernatant was carefully collected and this was used as a stock solution of curcumin in ethanol. The stock solution was adjusted with ethanol so that a 100 x dilution of this stock solution in MQ-Water gave an absorbance of 2±0.1 at 420 nm, when measured immediately after the dilution. If stored at ambient conditions, the absorbance decreases rapidly due to degradation of curcumin by oxidation and light.
To load curcumin 10 μL of curcumin stock solution was added to 990 μL of buffer (±lactase) which was used for encapsulation. The loaded curcumin was not removed by repeated washing and this indicated good encapsulation and stabilization. The microcapsule suspension with encapsulated curcumin appeared yellow.

SMILES: O=C([O-])[O-].[Ca+2] [calcium carbonate]
pKsp [1]: 8.47

SMILES: [Ca+2].[OH-].[OH-] [calcium hydroxide]
pKsp [1]: 5.3

increase of half-life ([2]; encapsulated in CaP particles stabilized by oligo-CGMP or in liposomes, versus storage at ambient conditions): 5-10 times
stability as indicated by half and quarter-life ([2]; encapsulated in oligo-CGMP micelles): significantly increased
SMILES: COc1cc(/C=C/C(=O)CC(=O)/C=C/c2ccc(O)c(OC)c2)ccc1O [curcumin]

SMILES: O=P([O-])([O-])[O-].O=P([O-])([O-])[O-].[Ca+2].[Ca+2].[Ca+2] [CaP, Ca3(PO4)2]
Ksp ([1]; 25° C.): 2.07×10^−33
